Here are results for five compounds from patent publication US4221737A, “1-(Alkynyl)amino-1-(mercaptoalkyl)amino ethylenes” (Bristol-Myers Company, priority 1979, dated 1980).

Data set [1] addresses T1, histamine H2-receptors (Cavia porcellus, UniProt P47747).
T1 construct: The spontaneously beating right atrium was dissected free from other tissues; from tissue; host or cells: isolated right atrium of male Hartley guinea pigs
Put plainly: Histamine H2-receptor antagonism, isolated guinea pig right atria. The note with it: for Histamine ED50 after test compound / Concentration-Response Curve Displacement Factor: test compound 3 × 10^-5 M; for Histamine ED50 after test compound: 30 minute incubation, 95% limits: cimetidine 3.9-5.9 (N=8), Compound XII 3.10-5.98 (N=2), BL-5949 12.50-15.90 (N=5); for Concentration-Response Curve Displacement Factor: displacement of histamine curve to the right. The procedure: Subsequent investigations by Hughes and Coret, Proc. Soc. […] Black et al., Agents and Actions, 3, 133 (1973) and Brimblecombe et al., Fed. […] The present comparative studies were carried out using a modification of the procedure reported by Reinhardt et al., Agents and Actions, 4, 217 (1974).
Male Hartley strain guinea pigs (350-450 gm.) were sacrificed by a blow on the head. The heart was excised and placed in a Petri dish of oxygenated (95% O2, 5% CO2) modified Krebs solution (g./liter: NaCl 6.6, KCl 0.35, MgSO4.7 H2 O 0.295, KH2 PO4 0.162, CaCl2 0.238, NaHCO3 2.1 and dextrose 2.09). The spontaneously beating right atrium was dissected free from other tissues and a silk thread (4-0) attached to each end. The atrium was suspended in a 20 ml. muscle chamber containing oxygenated modified Krebs solution maintained at 32° C. Atrial contractions were recorded isometrically by means of a Grass FT 0.03 force displacement transducer and recordings of contractile force and rate were made with a Beckman RP Dynograph.
A resting tension of 1 g. was applied to the atrium and it was allowed to equilibrate for 1 hour.
Concentration-response curve displacement factors were calculated as follows: [formula] […] [formula]

Another data set relates to gastric acid output. Put plainly: Gastric antisecretory activity in the two hour pylorus ligated (Shay) rat. The format is in vivo, rat (male Long Evans). The text has this:
The pyloric ligation procedure in the rat was designed by Shay et al., Gastroenterology, 5, 53 (1945) for the study of perforating gastric ulcers; however, as the method became known, it was also employed as a means of studying rat gastric secretion, Shay et al., Gastroenterology, 26, 906 (1954), Brodie, D. A., Am. J. Dig. Dis., 11, 231 (1966). A modification of this procedure is presently used to evaluate compounds for gastric antisecretory activity.
Male Long Evans rats, 280-300 gm., are used. The animals are placed in individual cages and fasted for 24 hours with free access to water. Under ether anesthesia, the stomach is reached through a midline incision, and a cotton-thread ligature is placed around the pylorus. […] All compounds are solubilized with one equivalent of HCl and brought to the proper volume with water. The animals are returned to their cages from which the water bottles have been removed and two hours later are sacrificed with ether. The stomach is removed and the two hour gastric collection is drained into a graduated test tube for volume determination. Titratable acidity is measured by titrating a one ml. sample to pH 7.0 with 0.02 N NaOH, using an Autoburet and an electrometric pH meter (Radiometer). […] The percent inhibition of acid output is calculated as follows [formula]

For data set [2], the system named is histamine-induced gastric acid output. Kind of data set: Gastric antisecretory activity in the gastric fistula dog (histamine-induced gastric acid output). It counts as in vivo, dog (beagle). As to conditions: for Percent Inhibition Acid Output: 1.5 μMole/kg iv (BL-5949: one dog at this dose). On the procedure:
Thomas type [Thomas, J. E., Proc. Soc. exp. Biol. Med., 46, 260 (1941)] stainless steel cannulae are inserted into the stomachs of beagle dogs (10-12 kg.) just orad to the pyloric gland area near the greater curvature to provide a chronic gastric fistula. Animals are allowed to recover for at least two months before any testing is done. Dogs are fasted overnight (~18 hours) with water ad lib prior to each experiment. The dogs are placed in a sling and an eight inch inside needle catheter (C. R. Baird, Inc.) with a two inch 17 gauge needle is inserted into a leg vein for purposes of drug administration. Gastric secretions are collected every 15 minutes by gravity drainage from the opened cannula. […] A modification of the procedure described by Grossman and Konturek, Gastroenterology, 66, 517 (1974) was followed. […] Each 15 minute sample of gastric juice is measured to the nearest 0.5 ml. and titratable acidity against 0.02 N NaOH (endpoint pH 7.0) is measured with an Autoburet and pH meter (radiometer).The percent inhibition of acid output is calculated as described in the pylorus ligated rat procedure.

Data set [3] has as its target T1, histamine H2-receptors. The note with it: Black et al., Nature, 236, 385 (1972); cited from earlier work.
The test system of a further data set is gastric secretion. The note with it: animals and man; cited from earlier work.
For data set [4] the following is noted: cited from earlier work.
For data set [5] the following is noted: clinical; cited from earlier work.
A further data set concerns H2-receptor. The note with it: cited from earlier work.
Another data set concerns peptic ulcer disease. The note with it: Gray et al., Lancet, 1 (8001), 4 (1977); cited from earlier work.

T1 sequence (P47747 whole entry): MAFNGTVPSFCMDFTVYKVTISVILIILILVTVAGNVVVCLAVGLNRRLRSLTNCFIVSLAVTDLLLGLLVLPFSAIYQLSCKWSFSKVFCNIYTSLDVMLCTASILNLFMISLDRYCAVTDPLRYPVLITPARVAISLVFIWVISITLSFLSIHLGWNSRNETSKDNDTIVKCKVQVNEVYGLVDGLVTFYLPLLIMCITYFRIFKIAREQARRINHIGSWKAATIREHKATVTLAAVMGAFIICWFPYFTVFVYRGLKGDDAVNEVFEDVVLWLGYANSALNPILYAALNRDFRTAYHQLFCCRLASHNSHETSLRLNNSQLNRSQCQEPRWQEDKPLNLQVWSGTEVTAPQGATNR

As for `C#CCNC(=C[N+](=O)[O-])NCCSCc1[nH]cnc1C` [BL-5949, 1-Nitro-2-(2-propynylamino)-2-{2-[(4-methyl-1H-imidazol-5-yl)methylthio]ethylamino}ethylene], on histamine H2-receptors [1] (isolated guinea pig atria), the “Potency as histamine H2-receptor antagonist (in words)” value is listed as “more potent than either cimetidine or Compound XII”. The “Potency relative to Compound XII” value in the data set with gastric acid output (ip, rat) was determined as 3.7 times; in [2] (iv, dog) it was 3.8 times. Moreover, the “Potency as inhibitor of gastric secretion (in words)” value (in the data set with gastric acid output (rats); in [2] (dogs)) was “more potent than either cimetidine or Compound XII” in each case. The “Percent Inhibition Acid Output” value in [2] came out at 88%.

As for `CNC(=S)NCCCCc1cnc[nH]1` [Burimamide], the “Effect at histamine H2-receptors of guinea pig atria (in words)” value on histamine H2-receptors [3] is “a competitive antagonist of these receptors”. Besides, the “Inhibition of gastric secretion (in words)” value in the data set with gastric secretion was “inhibits gastric secretion in animals and man”. In addition, in [4], the “Oral absorption / oral activity (in words)” value was “oral absorption is poor”.

`CNC(=NC#N)NCCSCc1nc[nH]c1C` [Cimetidine]: at histamine H2-receptors [1], the “Histamine ED50 after test compound” value came to 4.80 µg/mL and the “Concentration-Response Curve Displacement Factor” value is given as 25.26. Besides, the “Percent Inhibition Acid Output” value in data set [2] came out at 53%. The “Toxicity (agranulocytosis) (in words)” value in data set [5] was “without producing agranulocytosis”. In addition, the “Potency as H2 antagonist (in words)” value in the data set with H2-receptor was “as effective an H2 antagonist as metiamide”. Further, the “Effectiveness in peptic ulcer disease (in words)” value in the data set on peptic ulcer disease is given as “an effective therapeutic agent in the treatment of peptic ulcer disease”.

Take `CNC(=C[N+](=O)[O-])NCCSCc1nc[nH]c1C` [Compound XII]: on histamine H2-receptors [1], the “Histamine ED50 after test compound” value was determined as 4.30 µg/mL and the “Concentration-Response Curve Displacement Factor” value is on record as 17.92.

In the case of `CNC(=S)NCCSCc1nc[nH]c1C` [Metiamide], the “Oral absorption / oral activity (in words)” value in [4] was “orally active in man”. Further, in data set [5], the “Toxicity (agranulocytosis) (in words)” value is “toxicity (agranulocytosis)”. Also, in the data set with H2-receptor, the “Potency as H2 antagonist (in words)” value is “more potent than burimamide”.
